Data as given in PubChem BioAssay (NCI).
Several values for one entry are separate records, joined by “and”; a condition that tells them apart may be missing. Equal values may be shown once.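 Protocol summary: plate cells (96-well), add compound at 5 concentrations, incubate 48 h, interpolate endpoints linearly. Here, GI50 denotes the concentration required for 50% inhibition of growth. TGI: total growth inhibition.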

Tests used:
Assay in all cases: growth of human tumour cells (NCI), 48 h
SK-MEL-5 melanoma = tested on: SK-MEL-5 melanoma
U251 CNS = tested on: U251 CNS
NCI-H23 lung = tested on: NCI-H23 lung
HCC-2998 colon = tested on: HCC-2998 colon
KM12 colon = tested on: KM12 colon
HT29 colon = tested on: HT29 colon
HOP-92 NSCLC = tested on: HOP-92 NSCLC
OVCAR-4 ovarian = tested on: OVCAR-4 ovarian
NCI-H460 lung = tested on: NCI-H460 lung
UACC-257 melanoma = tested on: UACC-257 melanoma

Structure (SMILES) | GI50 (SK-MEL-5 melanoma) [µM] | TGI (SK-MEL-5 melanoma) | GI50 (U251 CNS) [µM] | TGI (U251 CNS) | GI50 (NCI-H23 lung) | TGI (NCI-H23 lung) | GI50 (HCC-2998 colon) [µM] | TGI (HCC-2998 colon) | GI50 (KM12 colon) | TGI (KM12 colon) | GI50 (HT29 colon) [µM] | TGI (HT29 colon) | GI50 (HOP-92 NSCLC) [µM] | TGI (HOP-92 NSCLC) | GI50 (OVCAR-4 ovarian) [µM] | TGI (OVCAR-4 ovarian) | GI50 (NCI-H460 lung) | TGI (NCI-H460 lung) | GI50 (UACC-257 melanoma) [µM] | TGI (UACC-257 melanoma)
Cn1ccnc1C(=O)/C=C/c1ccc(CC(=O)Nc2ccc(Cl)cc2)cc1 | 14.4 | > 25 µM | 1.1 | > 25 µM | 2.04 µM | > 25 µM | 3.42 | > 25 µM | 1.51 µM | > 25 µM | 0.889 | > 25 µM | > 25 | > 25 µM | 2.18 | > 25 µM | 1.58 µM | > 25 µM | > 25 | > 25 µM
O=C(Nc1ccc(-c2nc3cc4ccccc4cc3[nH]2)cc1)c1cccc(Br)c1 | 6.58 | 21.4 µM | 5.23 | 19 µM | 19.2 µM | 50.3 µM | 31.1 | > 100 µM | 7.24 µM | 32.4 µM | 2.77 | 11.9 µM | 4 | 17.8 µM | 2.88 | 7.97 µM | 3.36 µM | 13 µM | 21 | 52.3 µM
COc1cc2oc(=O)cc(C)c2cc1[N+](=O)[O-] |  | > 65.1 µM |  | > 100 µM |  | 51.5 µM |  | 22.2 µM |  | > 57.3 µM |  | > 57.8 µM |  | 57.1 µM |  | 84.1 µM |  | > 100 µM |  | 33.5 µM
O=C(/C=C/c1ccco1)c1ccc(Nc2nc(Nc3ccc(F)cc3)nc(Nc3ccc(Cl)cc3)n2)cc1 | 23.7 | > 100 µM | 19.5 | 53.8 µM | 17.9 µM | > 63.4 µM | 38.1 | > 100 µM | 16.7 µM | 43.4 µM | 15.6 | > 89.7 µM | 2.69 | > 45.4 µM | 27.1 | > 88.3 µM | 9.29 µM | 31.9 µM | 15.2 | > 57.4 µM
c1ccc(N=C2c3ccccc3CN2c2ccccc2)cc1 |  | > 100 µM |  | > 100 µM |  | > 100 µM |  | > 100 µM |  | > 100 µM |  | > 100 µM |  | > 100 µM |  | > 100 µM |  | > 100 µM |  | > 100 µM
O=[N+]([O-])c1ccc(N2CCN(Cc3ccccc3)CC2)c2c1no[n+]2[O-] | 1.73 | 3.73 µM | 1.24 | 2.65 µM | 1.98 µM | 5.68 µM | 1.78 | 3.33 µM | 1.48 µM | 3.05 µM | 0.829 | 2.12 µM | 1.07 | 2.36 µM | 1.37 | 3.07 µM | 1.61 µM | 3.52 µM | 1.68 | 3.86 µM
CCn1c(=O)c(-c2ccn[nH]2)cc2c(C)nc(N)nc21 | 1.38 | 6.3 µM | 3.75 | > 100 µM | 2.07 µM | > 100 µM | 5.03 | > 100 µM | 3.3 µM | > 100 µM | 1.53 | > 100 µM | 0.213 | 1.56 µM | 1.25 | 44 µM | 1.4 µM | > 100 µM | 1.38 | 6.24 µM
O=C(Nc1ccc(S(=O)(=O)Nc2nccs2)cc1)c1cccnc1Nc1cccc(Cl)c1 | 11.3 | 23.5 µM | 13.2 | 26.1 µM | 12.9 µM | 28.5 µM | 14.1 | 27.9 µM | 10.3 µM | 22.9 µM | 16.7 | 30.3 µM | 11.2 | 36.5 µM | 16.3 | 69.3 µM | 16 µM | 32.6 µM | 18.8 | 43.6 µM
O=C1C2C(C(=O)N1O)N(Cc1ccccc1)C(=O)N2Cc1ccccc1 (stereo not drawn) |  | > 100 µM |  | > 100 µM |  | > 100 µM |  | > 100 µM |  | > 100 µM |  | > 100 µM |  | > 100 µM |  | > 100 µM |  | > 100 µM |  | > 100 µM
Cc1ccc(Nc2nc(NCCO)c3ccccc3n2)cc1C | 2.78 | 10.5 µM | 2.75 | 12.1 µM | 9.74 µM | 22.5 µM | 2.44 | 5.96 µM | 8.06 µM | 20.5 µM | 3.25 | 10.6 µM | 1.97 | 8.03 µM | 3.14 | 15.6 µM | 4.44 µM | 16.7 µM | 2.14 | 7.37 µM
Cc1[nH]c(=O)[nH]c(=O)c1N(CCF)CCCl | 388 | 394 µM and 788 µM and 699 µM | 212 | 693 µM and 1220 µM and 1200 µM | 255 µM and 512 µM | 635 µM and 2500 µM and 631 µM | 220 | 606 µM and 668 µM and 751 µM | 280 µM and 508 µM | 824 µM and 1330 µM and 719 µM |  | 1370 µM and 1230 µM | 153 | 329 µM and 466 µM and 363 µM | 230 | 461 µM and 755 µM | 118 µM and 264 µM and 171 µM | 689 µM and 834 µM and 633 µM | 228 | 465 µM and 1070 µM and 855 µM
COc1cccc(-c2nn(-c3ccccc3)cc2-c2ccnc(NCCNS(=O)(=O)c3ccc(Cl)cc3)c2)c1 | 1.94 | 3.88 µM | 5.89 | > 100 µM | 4.32 µM | > 100 µM | 4.26 | > 100 µM | 3.72 µM | > 100 µM | 3.37 | 11.3 µM | 2.46 | 9.48 µM | 4.15 | > 100 µM | 5.15 µM | > 100 µM | 7.03 | 44.9 µM
O=C1OC(c2ccco2)=N/C1=C\c1ccc(Cl)c(Cl)c1 |  | > 100 µM |  | > 100 µM |  | > 100 µM |  | > 100 µM |  | > 100 µM |  | > 100 µM |  | > 100 µM |  | > 100 µM |  | > 100 µM |  | > 100 µM
Nc1c(C(=O)Nc2ccccc2)sc2nc3c(cc12)CCCCCC3 | 0.393 | 9.07 µM | 0.395 | 7.78 µM | 0.65 µM | 16.4 µM | 0.485 |  | 0.398 µM | 17.6 µM | 0.303 | 1.43 µM | 0.523 | 5.1 µM | 1.11 | 15.7 µM | 0.352 µM | 3.91 µM | 3.1 | 28.9 µM
